# Assay results taken from the kinase profiling compilation of Christmann-Franck et al. (2016).
# pKi: −log10 of the molar value. Several values for one entry are separate records, joined by “and”; a condition that tells them apart may be missing. Identical values can stand only once.
# Legend:
# Assay in all cases: Caliper, Mobility shift assay off-chip
# TEC (human) = TEC (human) (UniProt P42680)
# MAPK7 (human) = MAPK7 (human) (UniProt Q13164)
# TNK2 (human) = TNK2 (human) (UniProt Q07912)
# MAPK11 (human) = MAPK11 (human) (UniProt Q15759)
# IGF1R (human) = IGF1R (human) (UniProt P08069)
# MAPK14 (human) = MAPK14 (human) (UniProt Q16539)
# IKBKE (human) = IKBKE (human) (UniProt Q14164)
# EPHA5 (human) = EPHA5 (human) (UniProt P54756)
# WNK3 (human) = WNK3 (human) (UniProt Q9BYP7)
# PASK (human) = PASK (human) (UniProt Q96RG2)
# WNK2 (human) = WNK2 (human) (UniProt Q9Y3S1)
# MAPKAPK5 (human) = MAPKAPK5 (human) (UniProt Q8IW41)
# CIT (human) = CIT (human) (UniProt O14578)
# CAMK2G (human) = CAMK2G (human) (UniProt Q13555)
# TSSK2 (human) = TSSK2 (human) (UniProt Q96PF2)
# RPS6KB1 (human) = RPS6KB1 (human) (UniProt P23443)
# GSK3B (human) = GSK3B (human) (UniProt P49841)
# LATS2 (human) = LATS2 (human) (UniProt Q9NRM7)
# PIM2 (human) = PIM2 (human) (UniProt Q9P1W9)
# EPHB1 (human) = EPHB1 (human) (UniProt P54762)
# PAK6 (human) = PAK6 (human) (UniProt Q9NQU5)
# DYRK1B (human) = DYRK1B (human) (UniProt Q9Y463)
# MAPK9 (human) = MAPK9 (human) (UniProt P45984)
# PRKD2 (human) = PRKD2 (human) (UniProt Q9BZL6)
# STK3 (human) = STK3 (human) (UniProt Q13188)
# PRKD1 (human) = PRKD1 (human) (UniProt Q15139)
# MAPK8 (human) = MAPK8 (human) (UniProt P45983)
# IRAK1 (human) = IRAK1 (human) (UniProt P51617)
# CDK2 (human) = CDK2 (human) (UniProt P24941)
# CAMK1 (human) = CAMK1 (human) (UniProt Q14012)
# SYK (human) = SYK (human) (UniProt P43405)
# ERBB2 (human) = ERBB2 (human) (UniProt P04626)
# FLT3 (human) = FLT3 (human) (UniProt P36888)
# Chain of WNK2 (human) (Q9Y3S1 whole entry, looked up): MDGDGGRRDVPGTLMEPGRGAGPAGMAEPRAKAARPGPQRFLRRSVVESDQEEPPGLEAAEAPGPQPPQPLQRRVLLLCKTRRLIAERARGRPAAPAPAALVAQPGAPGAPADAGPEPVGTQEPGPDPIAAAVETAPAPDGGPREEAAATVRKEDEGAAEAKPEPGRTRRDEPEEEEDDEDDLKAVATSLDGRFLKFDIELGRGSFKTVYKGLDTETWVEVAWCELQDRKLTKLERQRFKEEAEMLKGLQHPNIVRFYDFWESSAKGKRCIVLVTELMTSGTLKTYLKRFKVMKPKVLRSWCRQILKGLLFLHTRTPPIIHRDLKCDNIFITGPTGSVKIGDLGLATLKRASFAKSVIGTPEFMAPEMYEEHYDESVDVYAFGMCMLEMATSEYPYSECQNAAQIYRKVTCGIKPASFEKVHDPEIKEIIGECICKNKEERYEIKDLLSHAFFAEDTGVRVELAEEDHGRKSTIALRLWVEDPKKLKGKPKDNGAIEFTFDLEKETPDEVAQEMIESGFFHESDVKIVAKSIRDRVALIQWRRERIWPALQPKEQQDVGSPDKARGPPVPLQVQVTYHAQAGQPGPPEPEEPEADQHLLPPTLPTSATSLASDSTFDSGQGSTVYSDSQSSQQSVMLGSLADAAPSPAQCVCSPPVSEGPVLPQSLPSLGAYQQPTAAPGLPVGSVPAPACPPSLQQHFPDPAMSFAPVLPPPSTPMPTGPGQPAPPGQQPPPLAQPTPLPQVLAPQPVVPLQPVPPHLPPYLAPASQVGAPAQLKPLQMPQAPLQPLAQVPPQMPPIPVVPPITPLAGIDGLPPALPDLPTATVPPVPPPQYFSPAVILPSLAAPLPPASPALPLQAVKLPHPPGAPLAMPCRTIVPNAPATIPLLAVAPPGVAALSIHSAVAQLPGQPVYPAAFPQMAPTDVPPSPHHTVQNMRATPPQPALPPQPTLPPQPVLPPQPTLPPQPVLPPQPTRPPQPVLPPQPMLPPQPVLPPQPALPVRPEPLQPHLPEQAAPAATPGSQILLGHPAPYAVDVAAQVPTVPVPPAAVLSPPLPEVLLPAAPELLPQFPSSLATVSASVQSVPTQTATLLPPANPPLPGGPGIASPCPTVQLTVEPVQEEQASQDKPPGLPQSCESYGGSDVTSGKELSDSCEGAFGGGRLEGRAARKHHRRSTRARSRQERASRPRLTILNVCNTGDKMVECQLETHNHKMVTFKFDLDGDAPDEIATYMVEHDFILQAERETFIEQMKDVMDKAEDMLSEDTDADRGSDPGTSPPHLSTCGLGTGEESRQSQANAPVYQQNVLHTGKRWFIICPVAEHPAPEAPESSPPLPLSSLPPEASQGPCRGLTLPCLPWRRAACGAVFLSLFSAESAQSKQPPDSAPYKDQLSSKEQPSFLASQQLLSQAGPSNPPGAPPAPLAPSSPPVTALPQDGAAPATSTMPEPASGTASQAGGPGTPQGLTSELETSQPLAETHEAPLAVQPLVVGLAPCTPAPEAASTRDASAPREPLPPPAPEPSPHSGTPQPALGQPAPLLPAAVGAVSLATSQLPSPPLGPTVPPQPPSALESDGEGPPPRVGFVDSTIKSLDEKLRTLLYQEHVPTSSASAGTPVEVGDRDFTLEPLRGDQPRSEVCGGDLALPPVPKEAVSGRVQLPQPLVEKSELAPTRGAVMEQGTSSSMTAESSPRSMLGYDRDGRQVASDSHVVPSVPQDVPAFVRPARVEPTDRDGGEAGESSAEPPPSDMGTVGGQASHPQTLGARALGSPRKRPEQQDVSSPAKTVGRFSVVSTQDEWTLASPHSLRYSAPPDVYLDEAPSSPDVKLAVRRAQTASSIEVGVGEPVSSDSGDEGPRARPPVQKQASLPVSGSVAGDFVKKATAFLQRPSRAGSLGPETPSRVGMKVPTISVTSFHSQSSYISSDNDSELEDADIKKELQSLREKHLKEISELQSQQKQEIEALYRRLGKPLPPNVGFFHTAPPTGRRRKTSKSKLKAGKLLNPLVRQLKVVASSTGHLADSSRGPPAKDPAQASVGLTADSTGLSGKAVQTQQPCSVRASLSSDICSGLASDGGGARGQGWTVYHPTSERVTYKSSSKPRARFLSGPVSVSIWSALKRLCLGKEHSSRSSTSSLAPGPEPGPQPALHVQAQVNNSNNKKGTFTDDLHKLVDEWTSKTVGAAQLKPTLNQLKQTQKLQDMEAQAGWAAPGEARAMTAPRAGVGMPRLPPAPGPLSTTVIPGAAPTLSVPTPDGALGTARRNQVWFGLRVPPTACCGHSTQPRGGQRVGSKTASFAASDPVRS
# Chain of CAMK1 (human) (Q14012 whole entry, looked up): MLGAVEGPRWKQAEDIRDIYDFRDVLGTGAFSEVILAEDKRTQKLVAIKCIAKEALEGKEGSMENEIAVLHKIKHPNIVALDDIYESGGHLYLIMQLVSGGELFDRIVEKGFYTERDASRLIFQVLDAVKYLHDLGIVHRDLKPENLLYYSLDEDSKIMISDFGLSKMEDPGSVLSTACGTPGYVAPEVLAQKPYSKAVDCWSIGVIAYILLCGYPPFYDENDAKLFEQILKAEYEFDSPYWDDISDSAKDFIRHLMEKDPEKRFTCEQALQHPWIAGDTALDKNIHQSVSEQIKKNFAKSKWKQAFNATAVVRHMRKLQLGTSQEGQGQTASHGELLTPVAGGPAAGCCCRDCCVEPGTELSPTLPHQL
# Chain of IRAK1 (human) (P51617 whole entry, looked up): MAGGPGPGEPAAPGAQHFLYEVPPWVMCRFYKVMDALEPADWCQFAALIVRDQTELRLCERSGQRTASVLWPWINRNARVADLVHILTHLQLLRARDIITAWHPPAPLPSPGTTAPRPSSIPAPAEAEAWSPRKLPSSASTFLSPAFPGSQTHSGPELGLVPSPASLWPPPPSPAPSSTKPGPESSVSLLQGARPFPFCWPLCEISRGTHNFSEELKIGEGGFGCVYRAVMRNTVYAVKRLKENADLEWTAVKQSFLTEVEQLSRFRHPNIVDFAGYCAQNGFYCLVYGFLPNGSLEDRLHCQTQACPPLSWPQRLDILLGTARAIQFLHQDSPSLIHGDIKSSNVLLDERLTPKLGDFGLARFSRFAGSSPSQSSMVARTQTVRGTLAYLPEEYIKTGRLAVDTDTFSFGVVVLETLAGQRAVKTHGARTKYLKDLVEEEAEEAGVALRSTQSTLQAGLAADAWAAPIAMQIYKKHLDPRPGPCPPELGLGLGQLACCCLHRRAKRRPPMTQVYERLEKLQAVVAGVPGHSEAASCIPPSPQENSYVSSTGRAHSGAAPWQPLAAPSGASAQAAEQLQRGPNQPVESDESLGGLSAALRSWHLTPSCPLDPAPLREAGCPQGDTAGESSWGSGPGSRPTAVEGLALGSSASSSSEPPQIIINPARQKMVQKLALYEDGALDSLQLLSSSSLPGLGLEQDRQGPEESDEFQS
# Chain of PASK (human) (Q96RG2 whole entry, looked up): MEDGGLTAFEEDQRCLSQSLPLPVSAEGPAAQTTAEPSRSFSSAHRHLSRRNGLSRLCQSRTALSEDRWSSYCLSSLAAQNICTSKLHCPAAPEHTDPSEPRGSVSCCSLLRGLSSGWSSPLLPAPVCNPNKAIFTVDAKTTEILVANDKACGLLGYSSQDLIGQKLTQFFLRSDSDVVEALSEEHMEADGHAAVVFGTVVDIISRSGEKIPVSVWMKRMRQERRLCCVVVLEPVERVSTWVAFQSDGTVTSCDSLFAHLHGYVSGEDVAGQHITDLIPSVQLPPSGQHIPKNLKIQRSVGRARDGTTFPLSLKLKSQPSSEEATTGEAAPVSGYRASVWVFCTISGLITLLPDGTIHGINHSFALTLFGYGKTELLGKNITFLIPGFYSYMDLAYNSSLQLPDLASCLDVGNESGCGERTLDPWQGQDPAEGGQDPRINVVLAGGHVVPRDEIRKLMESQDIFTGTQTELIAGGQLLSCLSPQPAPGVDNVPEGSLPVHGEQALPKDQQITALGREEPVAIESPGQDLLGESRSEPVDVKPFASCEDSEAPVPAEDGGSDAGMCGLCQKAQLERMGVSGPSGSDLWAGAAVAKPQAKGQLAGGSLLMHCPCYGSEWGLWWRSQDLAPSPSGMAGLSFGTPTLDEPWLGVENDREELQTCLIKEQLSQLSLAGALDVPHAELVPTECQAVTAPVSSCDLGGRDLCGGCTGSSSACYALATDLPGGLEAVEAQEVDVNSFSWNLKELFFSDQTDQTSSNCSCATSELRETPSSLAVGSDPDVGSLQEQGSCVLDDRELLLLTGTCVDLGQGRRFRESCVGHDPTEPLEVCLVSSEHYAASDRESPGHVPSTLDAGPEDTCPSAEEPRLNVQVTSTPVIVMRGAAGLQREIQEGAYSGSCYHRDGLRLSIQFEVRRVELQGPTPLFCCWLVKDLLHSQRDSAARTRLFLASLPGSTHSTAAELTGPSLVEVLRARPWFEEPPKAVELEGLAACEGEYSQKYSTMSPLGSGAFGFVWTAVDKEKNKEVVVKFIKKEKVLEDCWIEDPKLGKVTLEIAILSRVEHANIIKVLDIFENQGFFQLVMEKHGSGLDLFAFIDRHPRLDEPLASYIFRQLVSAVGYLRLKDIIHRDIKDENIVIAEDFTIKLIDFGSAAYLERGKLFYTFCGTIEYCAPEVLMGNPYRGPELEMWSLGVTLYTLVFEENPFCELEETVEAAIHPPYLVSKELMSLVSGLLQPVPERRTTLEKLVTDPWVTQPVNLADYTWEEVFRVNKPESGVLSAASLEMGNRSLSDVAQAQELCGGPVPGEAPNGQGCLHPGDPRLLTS
# Chain of MAPK11 (human) (Q15759 whole entry, looked up): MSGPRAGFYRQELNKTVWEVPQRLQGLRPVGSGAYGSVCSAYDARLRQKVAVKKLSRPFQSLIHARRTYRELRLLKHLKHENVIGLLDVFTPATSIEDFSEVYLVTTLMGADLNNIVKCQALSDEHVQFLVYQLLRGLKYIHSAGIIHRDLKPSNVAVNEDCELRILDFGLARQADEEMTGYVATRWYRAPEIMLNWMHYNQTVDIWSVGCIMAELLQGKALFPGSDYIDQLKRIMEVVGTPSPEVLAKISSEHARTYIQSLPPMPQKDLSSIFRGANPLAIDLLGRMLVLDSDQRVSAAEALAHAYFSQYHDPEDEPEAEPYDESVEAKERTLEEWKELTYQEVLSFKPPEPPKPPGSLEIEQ
compound,measurement,setting,value
CNC(=O)c1cc(Oc2ccc(NC(=O)Nc3ccc(Cl)c(C(F)(F)F)c3)cc2)ccn1,inhibition,TEC (human); compound 0.02 µM,-6.3%
same,inhibition,TEC (human); compound 0.2 µM,9.4%
same,inhibition,MAPK7 (human); compound 0.02 µM,-9.1%
same,inhibition,MAPK7 (human); compound 0.2 µM,-8.8%
same,inhibition,TNK2 (human); compound 0.02 µM,-5%
same,inhibition,TNK2 (human); compound 0.2 µM,-3.2%
same,inhibition,MAPK11 (human); compound 0.02 µM,10.4%
same,inhibition,MAPK11 (human); compound 0.2 µM,62.3%
same,inhibition,IGF1R (human); compound 0.02 µM,-1.8%
same,inhibition,IGF1R (human); compound 0.2 µM,5%
same,inhibition,MAPK14 (human); compound 0.2 µM,63.8%
same,inhibition,IKBKE (human); compound 0.02 µM,-4.5%
same,inhibition,IKBKE (human); compound 0.2 µM,-4.7%
same,inhibition,EPHA5 (human); compound 0.02 µM,6.1%
same,inhibition,EPHA5 (human); compound 0.2 µM,38.8%
same,inhibition,WNK3 (human); compound 0.02 µM,-8%
same,inhibition,WNK3 (human); compound 0.2 µM,3.9%
same,inhibition,PASK (human); compound 0.02 µM,-1%
same,inhibition,PASK (human); compound 0.2 µM,1.7%
same,inhibition,WNK2 (human); compound 0.02 µM,-8.6%
same,inhibition,WNK2 (human); compound 0.2 µM,3.6%
same,inhibition,MAPKAPK5 (human); compound 0.02 µM,-7.4%
same,inhibition,MAPKAPK5 (human); compound 0.2 µM,1.4%
same,inhibition,CIT (human); compound 0.02 µM,-4.9%
same,inhibition,CIT (human); compound 0.2 µM,-2.3%
same,inhibition,CAMK2G (human); compound 0.02 µM,-7%
same,inhibition,CAMK2G (human); compound 0.2 µM,2%
same,inhibition,TSSK2 (human); compound 0.02 µM,-3.9%
same,inhibition,TSSK2 (human); compound 0.2 µM,-2.4%
same,inhibition,RPS6KB1 (human); compound 0.02 µM,8.1%
same,inhibition,RPS6KB1 (human); compound 0.2 µM,48.1%
same,inhibition,GSK3B (human); compound 0.02 µM,-6.7%
same,inhibition,GSK3B (human); compound 0.2 µM,2.9%
same,inhibition,LATS2 (human); compound 0.02 µM,-4.4%
same,inhibition,LATS2 (human); compound 0.2 µM,2.8%
same,inhibition,PIM2 (human); compound 0.02 µM,-0.2%
same,inhibition,PIM2 (human); compound 0.2 µM,1.2%
same,inhibition,EPHB1 (human); compound 0.02 µM,-1.8%
same,inhibition,EPHB1 (human); compound 0.2 µM,8.5%
same,inhibition,PAK6 (human); compound 0.02 µM,-6.6%
same,inhibition,PAK6 (human); compound 0.2 µM,-32.1%
same,inhibition,DYRK1B (human); compound 0.02 µM,-6.7%
same,inhibition,DYRK1B (human); compound 0.2 µM,0.6%
same,inhibition,MAPK9 (human); compound 0.02 µM,-7.7%
same,inhibition,MAPK9 (human); compound 0.2 µM,0.5%
same,inhibition,PRKD2 (human); compound 0.02 µM,-1.2%
same,inhibition,PRKD2 (human); compound 0.2 µM,0%
same,inhibition,STK3 (human); compound 0.02 µM,-3.3%
same,inhibition,STK3 (human); compound 0.2 µM,-1.9%
same,inhibition,PRKD1 (human); compound 0.02 µM,-1.1%
same,inhibition,PRKD1 (human); compound 0.2 µM,2.7%
same,inhibition,MAPK8 (human); compound 0.02 µM,-2.3%
same,inhibition,MAPK8 (human); compound 0.2 µM,-2.1%
same,inhibition,IRAK1 (human); compound 0.02 µM,-4%
same,inhibition,IRAK1 (human); compound 0.2 µM,-7.2%
same,inhibition,CDK2 (human); compound 0.02 µM,-3.5% and -3.6%
same,inhibition,CDK2 (human); compound 0.2 µM,-1.3% and -2.4%
same,inhibition,CAMK1 (human); compound 0.02 µM,-4.6%
same,inhibition,CAMK1 (human); compound 0.2 µM,-2.2%
same,inhibition,SYK (human); compound 0.02 µM,-7.3%
same,inhibition,SYK (human); compound 0.2 µM,-11.1%
same,inhibition,ERBB2 (human); compound 0.02 µM,0.5%
same,inhibition,ERBB2 (human); compound 0.2 µM,-1.7%
CCN(CC)CCNC(=O)c1c(C)[nH]c(/C=C2\C(=O)Nc3ccc(F)cc32)c1C,inhibition,TEC (human); compound 0.2 µM,7.6%
same,inhibition,TEC (human); compound 4.0 µM,31.6%
same,inhibition,MAPK7 (human); compound 0.2 µM,-5.7%
same,inhibition,MAPK7 (human); compound 4.0 µM,28.8%
same,inhibition,TNK2 (human); compound 0.2 µM,13.6%
same,inhibition,TNK2 (human); compound 4.0 µM,76.8%
same,inhibition,MAPK11 (human); compound 0.2 µM,-1.4%
same,inhibition,MAPK11 (human); compound 4.0 µM,-3.1%
same,inhibition,IGF1R (human); compound 0.2 µM,40.1%
same,inhibition,IGF1R (human); compound 4.0 µM,93%
same,inhibition,MAPK14 (human); compound 0.2 µM,-6.9%
same,inhibition,MAPK14 (human); compound 4.0 µM,-20.4%
same,inhibition,FLT3 (human); compound 0.2 µM,100%
same,inhibition,FLT3 (human); compound 4.0 µM,102%
same,inhibition,IKBKE (human); compound 0.2 µM,11.9%
same,inhibition,IKBKE (human); compound 4.0 µM,71.8%
same,inhibition,EPHA5 (human); compound 0.2 µM,6.7%
same,inhibition,EPHA5 (human); compound 4.0 µM,50.8%
same,inhibition,WNK3 (human); compound 0.2 µM,1.8%
same,inhibition,WNK3 (human); compound 4.0 µM,2.4%
same,inhibition,PASK (human); compound 0.2 µM,-4%
same,inhibition,PASK (human); compound 4.0 µM,17.8%
same,inhibition,WNK2 (human); compound 0.2 µM,1.7%
same,inhibition,WNK2 (human); compound 4.0 µM,-2.1%
same,inhibition,MAPKAPK5 (human); compound 0.2 µM,6%
same,inhibition,MAPKAPK5 (human); compound 4.0 µM,45.2%
same,inhibition,CIT (human); compound 0.2 µM,2.2%
same,inhibition,CIT (human); compound 4.0 µM,29.1%
same,inhibition,CAMK2G (human); compound 0.2 µM,49.6%
same,inhibition,CAMK2G (human); compound 4.0 µM,96.2%
same,inhibition,TSSK2 (human); compound 0.2 µM,-0.6%
same,inhibition,TSSK2 (human); compound 4.0 µM,35.3%
same,inhibition,RPS6KB1 (human); compound 0.2 µM,66.4%
same,inhibition,RPS6KB1 (human); compound 4.0 µM,96.6%
same,inhibition,GSK3B (human); compound 0.2 µM,1.1%
same,inhibition,GSK3B (human); compound 4.0 µM,23.7%
same,inhibition,PIM2 (human); compound 0.2 µM,2.5%
same,inhibition,PIM2 (human); compound 4.0 µM,12.1%
same,inhibition,EPHB1 (human); compound 0.2 µM,34.5%
same,inhibition,EPHB1 (human); compound 4.0 µM,89%
same,inhibition,PAK6 (human); compound 0.2 µM,6%
same,inhibition,PAK6 (human); compound 4.0 µM,22.2%
same,inhibition,DYRK1B (human); compound 4.0 µM,74.7%
same,inhibition,MAPK9 (human); compound 0.2 µM,-8.7%
same,inhibition,MAPK9 (human); compound 4.0 µM,-15.7%
same,pKi,PRKD2 (human),7.28
same,inhibition,PRKD2 (human); compound 0.2 µM,65.6%
same,inhibition,PRKD2 (human); compound 4.0 µM,97.9%
same,inhibition,STK3 (human); compound 0.2 µM,51.4%
same,inhibition,STK3 (human); compound 4.0 µM,95.7%
same,inhibition,PRKD1 (human); compound 0.2 µM,73.6%
same,inhibition,PRKD1 (human); compound 4.0 µM,99%
same,inhibition,MAPK8 (human); compound 0.2 µM,-3.9%
same,inhibition,MAPK8 (human); compound 4.0 µM,-16%
same,inhibition,IRAK1 (human); compound 0.2 µM,68.5%
same,inhibition,IRAK1 (human); compound 4.0 µM,84%
same,inhibition,CAMK1 (human); compound 0.2 µM,7.3%
same,inhibition,CAMK1 (human); compound 4.0 µM,61.2%
same,inhibition,ERBB2 (human); compound 0.2 µM,-3.2%
same,inhibition,ERBB2 (human); compound 4.0 µM,-2.9%
